Results on 19 compounds are retold here after BindingDB's records for doi:10.1021/jm00007a008 (Glaxo Inc. Research Institute, 1995).

Molecules are shown by their SMILES.

The first assay in a line: Minimum concentration that produced 50% fragmentation of DNA was measured in the presence of excess calf thymus topoisomerase.
As to `CC[C@@]1(O)C(=O)OCc2c1cc1n(c2=O)Cc2c-1nc1c[n+]([O-])c(CN)cc1c2C` [(S)-9-Aminomethyl-4-ethyl-4-hydroxy-11-methyl-8-oxy-1,12-dihydro-4H-2-oxa-6,8,12a-triaza-dibenzo[b,h]fluorene-3,13-dione], the IC50 amounted to 190 nM.

As to `CCc1c2c(nc3c[n+](C)ccc13)-c1cc3c(c(=O)n1C2)COC(=O)[C@]3(O)CC` [(S)-4,11-Diethyl-4-hydroxy-8-methyl-3,13-dioxo-3,4,12,13-tetrahydro-1H-2-oxa-6,12a-diaza-8-azonia-dibenzo[b,h]fluorene; iodide], the IC50 came out at 1460 nM.

As for `CCc1c2c(nc3cnc(C(=N)N)cc13)-c1cc3c(c(=O)n1C2)COC(=O)[C@]3(O)CC` [(S)-4,11-Diethyl-4-hydroxy-3,13-dioxo-3,4,12,13-tetrahydro-1H-2-oxa-6,8,12a-triaza-dibenzo[b,h]fluorene-9-carboxamidine], the IC50 stood at 33 nM.

With `CCc1c2c(nc3cnc(C#CCN)cc13)-c1cc3c(c(=O)n1C2)COC(=O)[C@]3(O)CC` [(S)-9-(3-Amino-prop-1-ynyl)-4,11-diethyl-4-hydroxy-1,12-dihydro-4H-2-oxa-6,8,12a-triaza-dibenzo[b,h]fluorene-3,13-dione], the IC50 was 1080 nM.

Turning to `CCc1c2c(nc3cnc(C(=N)NO)cc13)-c1cc3c(c(=O)n1C2)COC(=O)[C@]3(O)CC` [(S)-4,11-Diethyl-4,N-dihydroxy-3,13-dioxo-3,4,12,13-tetrahydro-1H-2-oxa-6,8,12a-triaza-dibenzo[b,h]fluorene-9-carboxamidine], the IC50 amounted to 71 nM.

Turning to `CC[C@@]1(O)C(=O)OCc2c1cc1n(c2=O)Cc2c-1nc1cnc(CN)cc1c2C` [(S)-9-Aminomethyl-4-ethyl-4-hydroxy-11-methyl-1,12-dihydro-4H-2-oxa-6,8,12a-triaza-dibenzo[b,h]fluorene-3,13-dione], the IC50 was determined as 232 nM.

The next assay in a line: In vitro fragmentation of DNA in the presence of excess calf thymus topoisomerase.
For the compound `CC[C@@]1(O)C(=O)OCc2c1cc1n(c2=O)Cc2cc3ccncc3nc2-1` [(S)-4-Ethyl-4-hydroxy-1,12-dihydro-4H-2-oxa-6,8,12a-triaza-dibenzo[b,h]fluorene-3,13-dione], the IC50 worked out at 383 nM.

`CCc1c2c(nc3cnc(CN)cc13)-c1cc3c(c(=O)n1C2)COC(=O)[C@]3(O)CC` [(S)-9-Aminomethyl-4,11-diethyl-4-hydroxy-1,12-dihydro-4H-2-oxa-6,8,12a-triaza-dibenzo[b,h]fluorene-3,13-dione]: the IC50 came out at 167 nM.

As for `CC[C@@]1(O)C(=O)OCc2c1cc1n(c2=O)Cc2cc3cc[n+]([O-])cc3nc2-1` [(S)-4-Ethyl-4-hydroxy-8-oxy-1,12-dihydro-4H-2-oxa-6,8,12a-triaza-dibenzo[b,h]fluorene-3,13-dione], the IC50 turned out to be 1180 nM.

Regarding `CCc1c2c(nc3cnc(Br)cc13)-c1cc3c(c(=O)n1C2)COC(=O)[C@]3(O)CC` [(S)-9-Bromo-4,11-diethyl-4-hydroxy-1,12-dihydro-4H-2-oxa-6,8,12a-triaza-dibenzo[b,h]fluorene-3,13-dione], the IC50 was 122 nM.

As to `CCc1c2c(nc3cnc(C#CCN(C)C)cc13)-c1cc3c(c(=O)n1C2)COC(=O)[C@]3(O)CC` [(S)-9-(3-Dimethylamino-prop-1-ynyl)-4,11-diethyl-4-hydroxy-1,12-dihydro-4H-2-oxa-6,8,12a-triaza-dibenzo[b,h]fluorene-3,13-dione], the IC50 was determined as 1330 nM.

As to `CCc1c2c(nc3cnc(CCCN(C)C)cc13)-c1cc3c(c(=O)n1C2)COC(=O)[C@]3(O)CC` [(S)-9-(3-Dimethylamino-propyl)-4,11-diethyl-4-hydroxy-1,12-dihydro-4H-2-oxa-6,8,12a-triaza-dibenzo[b,h]fluorene-3,13-dione], the IC50 came out at 1490 nM.

As to `CCc1c2c(nc3cnccc13)-c1cc3c(c(=O)n1C2)COC(=O)[C@]3(O)CC` [(S)-4,11-Diethyl-4-hydroxy-1,12-dihydro-4H-2-oxa-6,8,12a-triaza-dibenzo[b,h]fluorene-3,13-dione], the IC50 worked out at 336 nM.

Take `CCOC(=O)c1cc2c(CC)c3c(nc2cn1)-c1cc2c(c(=O)n1C3)COC(=O)[C@]2(O)CC` [(S)-4,11-Diethyl-4-hydroxy-3,13-dioxo-3,4,12,13-tetrahydro-1H-2-oxa-6,8,12a-triaza-dibenzo[b,h]fluorene-9-carboxylic acid ethyl ester]: the IC50 was 949 nM.

`CC[C@@]1(O)C(=O)OCc2c1cc1n(c2=O)Cc2c-1nc1cnc(C#CCN3CCOCC3)cc1c2C` [(S)-4-Ethyl-4-hydroxy-11-methyl-9-(3-morpholin-4-yl-prop-1-ynyl)-1,12-dihydro-4H-2-oxa-6,8,12a-triaza-dibenzo[b,h]fluorene-3,13-dione]: the IC50 came to 1110 nM.

As for `CC[C@@]1(O)C(=O)OCc2c1cc1n(c2=O)Cc2c-1nc1c[n+]([O-])c(CNC(=O)OC(C)(C)C)cc1c2C` [((S)-4-Ethyl-4-hydroxy-11-methyl-3,13-dioxo-8-oxy-3,4,12,13-tetrahydro-1H-2-oxa-6,8,12a-triaza-dibenzo[b,h]fluoren-9-ylmethyl)-carbamic acid tert-butyl ester], the IC50 turned out to be 217 nM.

As to `CCc1c2c(nc3cnc(C#N)cc13)-c1cc3c(c(=O)n1C2)COC(=O)[C@]3(O)CC` [(S)-4,11-Diethyl-4-hydroxy-3,13-dioxo-3,4,12,13-tetrahydro-1H-2-oxa-6,8,12a-triaza-dibenzo[b,h]fluorene-9-carbonitrile], the IC50 was 268 nM.

With `CC[C@@]1(O)C(=O)OCc2c1cc1n(c2=O)Cc2c-1nc1cnc(C#CCN)cc1c2C` [(S)-9-(3-Amino-prop-1-ynyl)-4-ethyl-4-hydroxy-11-methyl-1,12-dihydro-4H-2-oxa-6,8,12a-triaza-dibenzo[b,h]fluorene-3,13-dione], the IC50 is 505 nM.

As to `CCc1c2c(nc3cnc(C(=O)NCCN(C)C)cc13)-c1cc3c(c(=O)n1C2)COC(=O)[C@]3(O)CC` [(S)-4,11-Diethyl-4-hydroxy-3,13-dioxo-3,4,12,13-tetrahydro-1H-2-oxa-6,8,12a-triaza-dibenzo[b,h]fluorene-9-carboxylic acid (2-dimethylamino-ethyl)-amide], the IC50 amounted to 9330 nM.

Usually IC50 stands for the concentration that gives 50% inhibition.
